Assay results: PubChem BioAssay (NCI)
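GI50 is the concentration that inhibits growth by half. At the TGI there is no net growth.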

Columns and labels:
Assay in all cases: NCI anticancer screen, dose series, 384-well format
MDA-MB-231 breast = test system: MDA-MB-231 breast
MDA-MB-435 melanoma = test system: MDA-MB-435 melanoma
NCI-H23 lung = test system: NCI-H23 lung
RPMI-8226 leukemia = test system: RPMI-8226 leukemia
T-47D breast = test system: T-47D breast
LOX IMVI melanoma = test system: LOX IMVI melanoma
NCI/ADR-RES ovarian = test system: NCI/ADR-RES ovarian
SR leukemia = test system: SR leukemia
HCT-15 colon = test system: HCT-15 colon
OVCAR-4 ovarian = test system: OVCAR-4 ovarian
HCC-2998 colon = test system: HCC-2998 colon
SK-OV-3 ovarian = test system: SK-OV-3 ovarian
NCI-H226 lung = test system: NCI-H226 lung
UACC-62 melanoma = test system: UACC-62 melanoma
MOLT-4 leukemia = test system: MOLT-4 leukemia
SF-295 CNS = test system: SF-295 CNS
SNB-19 CNS = test system: SNB-19 CNS
786-0 renal = test system: 786-0 renal
CAKI-1 renal = test system: CAKI-1 renal
UACC-257 melanoma = test system: UACC-257 melanoma
SF-268 CNS = test system: SF-268 CNS
MDA-MB-468 breast = test system: MDA-MB-468 breast
SF-539 CNS = test system: SF-539 CNS
RXF 393 renal = test system: RXF 393 renal
NCI-H460 NSCLC = test system: NCI-H460 NSCLC
A498 renal = test system: A498 renal
COLO 205 colon = test system: COLO 205 colon
UO-31 renal = test system: UO-31 renal
SN12C renal = test system: SN12C renal
SNB-75 CNS = test system: SNB-75 CNS
CCRF-CEM leukemia = test system: CCRF-CEM leukemia
HCT-116 colon = test system: HCT-116 colon
SK-MEL-2 melanoma = test system: SK-MEL-2 melanoma
M14 melanoma = test system: M14 melanoma
A549 NSCLC = test system: A549 NSCLC
HOP-92 NSCLC = test system: HOP-92 NSCLC
BT-549 breast = test system: BT-549 breast
NCI-H322M lung = test system: NCI-H322M lung
KM12 colon = test system: KM12 colon
SK-MEL-5 melanoma = test system: SK-MEL-5 melanoma
U251 glioblastoma = test system: U251 glioblastoma
MALME-3M melanoma = test system: MALME-3M melanoma
NCI-H522 lung = test system: NCI-H522 lung
HL-60(TB) leukemia = test system: HL-60(TB) leukemia
HT29 colon = test system: HT29 colon
EKVX NSCLC = test system: EKVX NSCLC
ACHN renal = test system: ACHN renal
K-562 leukemia = test system: K-562 leukemia
IGROV1 ovarian = test system: IGROV1 ovarian
OVCAR-5 ovarian = test system: OVCAR-5 ovarian
HS 578T breast = test system: HS 578T breast
MCF7 breast = test system: MCF7 breast
PC-3 prostate = test system: PC-3 prostate

In the case of CC(C)c1cc(-c2n[nH]c(=O)n2-c2ccc3c(ccn3C)c2)c(O)cc1O, the GI50 (MDA-MB-231 breast) is reported as 19.1 nM, the TGI (MDA-MB-231 breast) is reported as 72 nM and the GI50 (MDA-MB-435 melanoma) is reported as under 10 nM. For the same molecule, the TGI (MDA-MB-435 melanoma) was 22600 nM, the GI50 (NCI-H23 lung) was under 10 nM and the TGI (NCI-H23 lung) was 23.8 nM. The GI50 (RPMI-8226 leukemia) was under 10 nM, the TGI (RPMI-8226 leukemia) was 12.9 nM and the GI50 (T-47D breast) was 28.2 nM. The TGI (T-47D breast) was 1570 nM, the GI50 (LOX IMVI melanoma) was under 10 nM and the TGI (LOX IMVI melanoma) was 20.7 nM. For the same molecule, the GI50 (NCI/ADR-RES ovarian) was 22.6 nM, the TGI (NCI/ADR-RES ovarian) was 69.1 nM and the GI50 (SR leukemia) was under 10 nM. It also gave a TGI (SR leukemia) of under 10 nM, a GI50 (HCT-15 colon) of under 10 nM and a TGI (HCT-15 colon) of 13100 nM. It also gave a GI50 (OVCAR-4 ovarian) of under 10 nM, a TGI (OVCAR-4 ovarian) of over 100000 nM and a GI50 (HCC-2998 colon) of under 10 nM. The TGI (HCC-2998 colon) was 15.6 nM, the GI50 (SK-OV-3 ovarian) was 12.3 nM and the TGI (SK-OV-3 ovarian) was 2440 nM. For the same molecule, the GI50 (NCI-H226 lung) was 46.5 nM, the TGI (NCI-H226 lung) was 603 nM and the GI50 (UACC-62 melanoma) was under 10 nM. The TGI (UACC-62 melanoma) was 31.6 nM, the GI50 (MOLT-4 leukemia) was under 10 nM and the TGI (MOLT-4 leukemia) was under 10 nM. It also gave a GI50 (SF-295 CNS) of 17 nM, a TGI (SF-295 CNS) of 46.6 nM and a GI50 (SNB-19 CNS) of 13.4 nM. The TGI (SNB-19 CNS) was 74.5 nM, the GI50 ([…]-0 renal) was under 10 nM and the TGI (786-0 renal) was 78.1 nM. It also gave a GI50 (CAKI-1 renal) of 19.5 nM, a TGI (CAKI-1 renal) of 18000 nM and a GI50 (UACC-257 melanoma) of 42.4 nM. For the same molecule, the TGI (UACC-257 melanoma) was 22600 nM, the GI50 (SF-268 CNS) was 15.4 nM and the TGI (SF-268 CNS) was 28400 nM. The GI50 (MDA-MB-468 breast) was under 10 nM, the TGI (MDA-MB-468 breast) was under 10 nM and the GI50 (SF-539 CNS) was under 10 nM. The TGI (SF-539 CNS) was under 10 nM, the GI50 (RXF 393 renal) was under 10 nM and the TGI (RXF 393 renal) was 11500 nM. It also gave a GI50 (NCI-H460 NSCLC) of under 10 nM, a TGI (NCI-H460 NSCLC) of under 10 nM and a GI50 (A498 renal) of 26.1 nM. For the same molecule, the TGI (A498 renal) was 17200 nM, the GI50 (COLO 205 colon) was under 10 nM and the TGI (COLO 205 colon) was 56.7 nM. The GI50 (UO-31 renal) was under 10 nM, the TGI (UO-31 renal) was 11800 nM and the GI50 (SN12C renal) was under 10 nM. For the same molecule, the TGI (SN12C renal) was 36.7 nM, the GI50 (SNB-75 CNS) was under 10 nM and the TGI (SNB-75 CNS) was 46 nM. For the same molecule, the GI50 (CCRF-CEM leukemia) was under 10 nM, the TGI (CCRF-CEM leukemia) was 15.2 nM and the GI50 (HCT-116 colon) was 18.8 nM. The TGI (HCT-116 colon) was 10500 nM, the GI50 (SK-MEL-2 melanoma) was under 10 nM and the TGI (SK-MEL-2 melanoma) was under 10 nM. It also gave a GI50 (M14 melanoma) of under 10 nM, a TGI (M14 melanoma) of 2690 nM and a GI50 (A549 NSCLC) of under 10 nM. It also gave a TGI (A549 NSCLC) of 14000 nM, a GI50 (HOP-92 NSCLC) of 11.8 nM and a TGI (HOP-92 NSCLC) of 36.3 nM. For the same molecule, the GI50 (BT-549 breast) was under 10 nM, the TGI (BT-549 breast) was under 10 nM and the GI50 (NCI-H322M lung) was 19.9 nM. It also gave a TGI (NCI-H322M lung) of 16200 nM, a GI50 (KM12 colon) of under 10 nM and a TGI (KM12 colon) of 84.9 nM. It also gave a GI50 (SK-MEL-5 melanoma) of under 10 nM, a TGI (SK-MEL-5 melanoma) of 3690 nM and a GI50 (U251 glioblastoma) of under 10 nM. For the same molecule, the TGI (U251 glioblastoma) was 24.3 nM, the GI50 (MALME-3M melanoma) was under 10 nM and the TGI (MALME-3M melanoma) was under 10 nM. The GI50 (NCI-H522 lung) was under 10 nM, the TGI (NCI-H522 lung) was under 10 nM and the GI50 (HL-60(TB) leukemia) was under 10 nM. For the same molecule, the TGI (HL-60(TB) leukemia) was under 10 nM, the GI50 (HT29 colon) was 36.4 nM and the TGI (HT29 colon) was 13400 nM. It also gave a GI50 (EKVX NSCLC) of 11.8 nM, a TGI (EKVX NSCLC) of 76.3 nM and a GI50 (ACHN renal) of under 10 nM. The TGI (ACHN renal) was over 100000 nM, the GI50 (K-562 leukemia) was under 10 nM and the TGI (K-562 leukemia) was 27 nM. The GI50 (IGROV1 ovarian) was under 10 nM, the TGI (IGROV1 ovarian) was 21.4 nM and the GI50 (OVCAR-5 ovarian) was 21.8 nM. For the same molecule, the TGI (OVCAR-5 ovarian) was 13500 nM, the GI50 (HS 578T breast) was under 10 nM and the TGI (HS 578T breast) was 61.5 nM. For the same molecule, the GI50 (MCF7 breast) was under 10 nM, the TGI (MCF7 breast) was 16400 nM and the GI50 (PC-3 prostate) was 10.2 nM. It also gave a TGI (PC-3 prostate) of 52.7 nM.
